Measured values reported in ChEMBL document CHEMBL5614367, “Hydroxamic acid hybrids: Histone deacetylase inhibitors with anticancer therapeutic potency” (Eur J Med Chem, 2023).
Values belong to the compound of their own block, whether it stands above or below them.

What was measured:
Histone deacetylase 1 = Histone deacetylase 1 (Homo sapiens, UniProt Q13547); assay: Inhibition of HDAC1 (unknown origin)
A549 [1] = assay: Antiproliferative activity against human A549 cells
Jurkat = assay: Antiproliferative activity against human Jurkat cells; assay type: functional, cell-based
HepG2 = assay: Antiproliferative activity against human HepG2 cells; assay type: functional, cell-based
MDA-MB-231 = assay: Antiproliferative activity against human MDA-MB-231 cells
[2] = target: Tyrosine-protein kinase JAK2 (Homo sapiens, UniProt O60674); assay: Inhibition of JAK2 (unknown origin)
SW-620 = assay: Antiproliferative activity against human SW620 cells incubated for 72 hrs by colorimetric method; assay type: functional, cell-based; settings: SW-620, 72 h
Histone deacetylase = assay: Inhibition of HDAC (unknown origin); assay type: protein assay, Homo sapiens
NCI-H23 = assay: Antiproliferative activity against human NCI-H23 cells incubated for 72 hrs by colorimetric method; assay type: functional, cell-based; settings: NCI-H23, 72 h
PC-3 = assay: Antiproliferative activity against human PC-3 cells incubated for 72 hrs by colorimetric method; assay type: functional, cell-based; settings: PC-3, 72 h
MCF7 [3] = assay: cells; settings: Homo sapiens
[4] = target: T1, Protein deacetylase HDAC6 (Homo sapiens, UniProt Q9UBN7); assay: Inhibition of HDAC6 (unknown origin)
T1 sequence (Q9UBN7 whole entry): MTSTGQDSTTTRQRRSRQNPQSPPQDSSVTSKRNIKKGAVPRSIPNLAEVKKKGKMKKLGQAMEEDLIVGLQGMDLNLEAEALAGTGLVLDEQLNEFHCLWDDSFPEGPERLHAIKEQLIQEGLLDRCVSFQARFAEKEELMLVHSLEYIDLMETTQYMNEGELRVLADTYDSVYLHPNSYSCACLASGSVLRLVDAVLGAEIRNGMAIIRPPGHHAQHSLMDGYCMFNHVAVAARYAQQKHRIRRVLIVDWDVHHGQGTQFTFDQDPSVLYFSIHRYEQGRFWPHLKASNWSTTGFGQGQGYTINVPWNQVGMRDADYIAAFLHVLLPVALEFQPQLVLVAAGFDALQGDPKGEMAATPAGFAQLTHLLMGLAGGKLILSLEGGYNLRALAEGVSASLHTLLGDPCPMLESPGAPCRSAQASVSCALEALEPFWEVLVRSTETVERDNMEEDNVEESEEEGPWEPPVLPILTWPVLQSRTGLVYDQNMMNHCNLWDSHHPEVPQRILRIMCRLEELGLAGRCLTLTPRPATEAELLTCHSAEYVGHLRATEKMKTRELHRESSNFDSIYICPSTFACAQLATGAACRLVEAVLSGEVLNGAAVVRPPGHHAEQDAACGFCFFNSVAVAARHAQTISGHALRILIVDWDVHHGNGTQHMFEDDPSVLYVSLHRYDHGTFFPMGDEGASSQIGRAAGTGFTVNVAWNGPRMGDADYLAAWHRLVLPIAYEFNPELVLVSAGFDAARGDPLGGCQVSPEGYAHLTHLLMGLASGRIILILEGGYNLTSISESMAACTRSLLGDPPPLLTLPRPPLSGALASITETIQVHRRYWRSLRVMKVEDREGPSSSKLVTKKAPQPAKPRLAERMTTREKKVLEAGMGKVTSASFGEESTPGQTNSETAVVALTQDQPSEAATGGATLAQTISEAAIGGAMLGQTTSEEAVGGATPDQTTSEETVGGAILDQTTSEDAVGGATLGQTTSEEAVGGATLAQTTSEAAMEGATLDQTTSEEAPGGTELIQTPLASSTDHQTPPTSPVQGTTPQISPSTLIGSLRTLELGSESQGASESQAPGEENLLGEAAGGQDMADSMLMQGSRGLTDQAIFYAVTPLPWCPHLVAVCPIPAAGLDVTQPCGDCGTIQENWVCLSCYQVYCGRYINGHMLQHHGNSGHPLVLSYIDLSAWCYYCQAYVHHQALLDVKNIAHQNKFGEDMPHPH

[5] = Cytotoxicity against HEK293 cells assessed as inhibition of cell growth incubated for 48 hrs by MTT assay; assay type: toxicity, cell-based; settings: human
[6] = Cytotoxicity against human L02 cells assessed as inhibition of cell growth incubated for 48 hrs by MTT assay; assay type: toxicity, cell-based
MM1.S = assay: Antiproliferative activity against human MM1.S cells assessed as inhibition of cell growth incubated for 48 hrs by MTT assay; assay type: functional, cell-based
U-266 = assay: cells; assay type: functional, cell-based; settings: Homo sapiens, U-266, 48 h
RPMI-8226 = assay: Antiproliferative activity against human RPMI-8226 cells assessed as inhibition of cell growth incubated for 48 hrs by MTT assay; assay type: functional, cell-based; settings: RPMI-8226, 48 h
[7] = target: Phosphatidylinositol 4,5-bisphosphate 3-kinase catalytic subunit alpha isoform (Homo sapiens, UniProt P42336); assay: Inhibition of PI3Kalpha (unknown origin)
A2780 = assay: Antiproliferative activity against human A2780 cells; assay type: functional, cell-based
Daudi = assay: Cytotoxicity against human Daudi cells assessed as reduction in cell growth incubated for 24 hrs by MTT assay; assay type: functional, cell-based
A549 [8] = assay: Cytotoxicity against human A549 cells assessed as reduction in cell growth incubated for 24 hrs by MTT assay; assay type: functional, cell-based; settings: A549, 24 h
MCF7 [9] = assay: Cytotoxicity against human MCF7 cells assessed as reduction in cell growth incubated for 24 hrs by MTT assay; assay type: functional, cell-based; settings: MCF7, 24 h
MV4-11 = assay: Cytotoxicity against human MV4-11 cells assessed as reduction in cell growth incubated for 24 hrs by MTT assay; assay type: functional, cell-based; settings: MV4-11, 24 h
Histone deacetylase 8 = target: T2, Histone deacetylase 8 (Homo sapiens, UniProt Q9BY41); assay: Inhibition of HDAC8 (unknown origin) using R-H-K(Ac)-K(Ac)-AFC as fluoregenic substrate by fluorescence based analysis
T2 sequence (Q9BY41 whole entry): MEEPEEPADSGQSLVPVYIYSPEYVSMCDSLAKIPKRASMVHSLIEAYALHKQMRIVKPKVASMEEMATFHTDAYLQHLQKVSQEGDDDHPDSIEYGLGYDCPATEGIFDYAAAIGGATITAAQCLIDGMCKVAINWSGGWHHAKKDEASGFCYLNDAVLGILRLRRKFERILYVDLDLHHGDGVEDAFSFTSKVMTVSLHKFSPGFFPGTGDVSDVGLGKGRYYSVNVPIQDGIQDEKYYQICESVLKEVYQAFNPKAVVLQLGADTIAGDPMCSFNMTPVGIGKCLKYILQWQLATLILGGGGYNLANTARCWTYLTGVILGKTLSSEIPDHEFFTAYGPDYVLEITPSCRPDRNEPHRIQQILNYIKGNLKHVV

HL-60 = assay: Antiproliferative activity against human HL-60 cells; assay type: functional, cell-based
A-375 = assay: Antiproliferative activity against human A-375 cells; assay type: functional, cell-based
SGC-7901 = assay: Antiproliferative activity against human SGC-7901 cells; assay type: functional, cell-based
HCT-116 [10] = assay: cells; settings: Homo sapiens
MCF7 [11] = assay: Antiproliferative activity against human MCF7 cells measured after 72 hrs by MTT assay; assay type: functional, cell-based; settings: MCF7, 72 h
HCT-116 [12] = assay: Antiproliferative activity against human HCT-116 cells measured after 72 hrs by MTT assay; assay type: functional, cell-based; settings: HCT-116, 72 h
A549 [13] = assay: Antiproliferative activity against human A549 cells measured after 72 hrs by MTT assay; assay type: functional, cell-based; settings: A549, 72 h

Sequence of Histone deacetylase 1 (Q13547 whole entry): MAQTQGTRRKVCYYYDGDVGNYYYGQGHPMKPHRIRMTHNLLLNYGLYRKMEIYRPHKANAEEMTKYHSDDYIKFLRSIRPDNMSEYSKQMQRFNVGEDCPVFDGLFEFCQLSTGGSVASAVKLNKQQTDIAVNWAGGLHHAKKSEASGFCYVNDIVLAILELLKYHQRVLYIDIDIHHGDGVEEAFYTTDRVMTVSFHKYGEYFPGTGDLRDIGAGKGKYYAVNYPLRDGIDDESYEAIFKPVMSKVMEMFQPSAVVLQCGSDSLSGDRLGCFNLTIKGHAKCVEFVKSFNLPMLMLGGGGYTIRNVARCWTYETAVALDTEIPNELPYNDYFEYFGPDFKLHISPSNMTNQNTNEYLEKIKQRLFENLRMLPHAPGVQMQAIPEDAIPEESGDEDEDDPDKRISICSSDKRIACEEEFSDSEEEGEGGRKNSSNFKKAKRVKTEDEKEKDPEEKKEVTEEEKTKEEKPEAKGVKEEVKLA
Sequence of Phosphatidylinositol 4,5-bisphosphate 3-kinase catalytic subunit alpha isoform (P42336 whole entry, canonical isoform): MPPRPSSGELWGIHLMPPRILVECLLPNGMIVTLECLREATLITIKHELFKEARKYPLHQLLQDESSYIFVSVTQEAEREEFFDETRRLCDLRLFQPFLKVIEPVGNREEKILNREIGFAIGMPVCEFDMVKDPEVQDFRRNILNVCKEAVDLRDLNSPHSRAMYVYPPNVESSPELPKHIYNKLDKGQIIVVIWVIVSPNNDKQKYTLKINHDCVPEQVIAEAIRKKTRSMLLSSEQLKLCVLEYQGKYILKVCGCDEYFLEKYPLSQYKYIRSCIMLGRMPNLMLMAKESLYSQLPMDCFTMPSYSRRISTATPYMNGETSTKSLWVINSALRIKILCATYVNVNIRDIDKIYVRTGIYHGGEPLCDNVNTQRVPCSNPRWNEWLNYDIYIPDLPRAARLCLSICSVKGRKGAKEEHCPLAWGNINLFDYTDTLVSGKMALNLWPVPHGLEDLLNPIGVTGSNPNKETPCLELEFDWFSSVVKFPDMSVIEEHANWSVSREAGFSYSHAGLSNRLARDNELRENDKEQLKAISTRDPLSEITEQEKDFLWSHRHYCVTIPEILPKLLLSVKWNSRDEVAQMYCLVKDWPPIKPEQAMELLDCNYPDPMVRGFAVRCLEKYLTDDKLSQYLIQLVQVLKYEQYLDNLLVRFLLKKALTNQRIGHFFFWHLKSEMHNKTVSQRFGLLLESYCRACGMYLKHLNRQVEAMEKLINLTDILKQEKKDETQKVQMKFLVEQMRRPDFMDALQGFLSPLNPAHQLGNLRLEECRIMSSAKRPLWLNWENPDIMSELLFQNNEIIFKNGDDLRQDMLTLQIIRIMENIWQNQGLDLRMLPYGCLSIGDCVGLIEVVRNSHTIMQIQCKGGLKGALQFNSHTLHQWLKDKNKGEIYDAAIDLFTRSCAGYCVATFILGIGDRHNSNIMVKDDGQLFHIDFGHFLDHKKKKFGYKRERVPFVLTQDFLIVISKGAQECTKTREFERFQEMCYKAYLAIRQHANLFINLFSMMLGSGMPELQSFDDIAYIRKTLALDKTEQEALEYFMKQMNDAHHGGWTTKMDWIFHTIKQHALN
Sequence of Tyrosine-protein kinase JAK2 (O60674 whole entry): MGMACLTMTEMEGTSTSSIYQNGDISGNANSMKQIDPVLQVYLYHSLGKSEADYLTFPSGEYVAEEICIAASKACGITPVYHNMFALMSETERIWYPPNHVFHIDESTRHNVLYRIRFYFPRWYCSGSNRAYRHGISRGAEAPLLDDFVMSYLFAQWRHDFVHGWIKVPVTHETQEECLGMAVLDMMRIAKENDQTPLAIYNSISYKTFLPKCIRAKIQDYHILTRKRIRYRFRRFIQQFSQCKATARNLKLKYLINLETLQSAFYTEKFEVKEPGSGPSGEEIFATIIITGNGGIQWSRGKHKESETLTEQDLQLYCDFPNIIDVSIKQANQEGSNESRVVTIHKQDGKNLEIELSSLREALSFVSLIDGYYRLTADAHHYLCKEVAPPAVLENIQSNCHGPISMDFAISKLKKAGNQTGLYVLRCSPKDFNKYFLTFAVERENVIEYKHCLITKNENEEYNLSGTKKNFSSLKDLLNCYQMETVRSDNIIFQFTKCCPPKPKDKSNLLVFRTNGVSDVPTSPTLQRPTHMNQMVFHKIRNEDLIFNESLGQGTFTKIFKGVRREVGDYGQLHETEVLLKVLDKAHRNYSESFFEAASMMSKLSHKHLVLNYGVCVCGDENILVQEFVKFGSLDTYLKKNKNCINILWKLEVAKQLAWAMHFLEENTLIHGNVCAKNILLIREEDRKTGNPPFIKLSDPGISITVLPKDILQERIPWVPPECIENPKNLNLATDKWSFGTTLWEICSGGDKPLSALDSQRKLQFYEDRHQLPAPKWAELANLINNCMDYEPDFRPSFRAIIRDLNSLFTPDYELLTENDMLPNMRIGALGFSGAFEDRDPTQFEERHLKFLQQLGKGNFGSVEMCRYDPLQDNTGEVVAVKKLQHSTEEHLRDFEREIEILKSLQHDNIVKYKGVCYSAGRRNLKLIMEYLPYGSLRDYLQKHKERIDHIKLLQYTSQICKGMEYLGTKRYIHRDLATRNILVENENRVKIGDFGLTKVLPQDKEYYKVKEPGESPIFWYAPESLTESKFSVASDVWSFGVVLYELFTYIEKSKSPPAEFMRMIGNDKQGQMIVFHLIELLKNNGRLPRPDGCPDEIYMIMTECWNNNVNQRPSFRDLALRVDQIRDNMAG

SMILES: Cc1ccc(NS(=O)(=O)Nc2nc(C(=O)NO)cs2)cc1
IC50 (SW-620): 1450 nM
IC50 (Histone deacetylase): 36 nM
IC50 (NCI-H23): 1450 nM
IC50 (PC-3): 1450 nM

SMILES: CN1CCc2c(c3ccccc3n2Cc2ccc(C(=O)NO)cc2)C1 [TUBASTATIN A]
IC50 (MM1.S): 9450 nM
IC50 (U-266): 9450 nM
IC50 (RPMI-8226): 9450 nM

SMILES: Cc1cnc(Nc2ccc(OCCN3CCCC3)cc2)nc1Nc1cccc(S(=O)(=O)NC(C)(C)C)c1 [FEDRATINIB]
IC50 (A549 [1]): 560 nM
IC50 (Jurkat): 560 nM
IC50 (HepG2): 560 nM
IC50 (MDA-MB-231): 560 nM

SMILES: O=C(NO)c1csc(NS(=O)(=O)Nc2ccc(Cl)cc2)n1
IC50 (SW-620): 1450 nM
IC50 (Histone deacetylase): 36 nM
IC50 (NCI-H23): 1450 nM
IC50 (PC-3): 1450 nM

SMILES: COc1ncc(-c2ccc3nccc(C(=O)NCCCCC(=O)NO)c3c2)cc1NS(=O)(=O)c1cc(F)cc(F)c1
IC50 [7]: 1.3 nM
IC50 (Histone deacetylase 1): 4.8 nM
IC50 (A2780): 2150 nM

SMILES: CN1c2ccc(NCc3ccc(/C=C/C(=O)NO)cc3)cc2C(=O)N2CCc3c([nH]c4ccc(O)cc34)C21 (stereo unspecified)
IC50 (MCF7 [3]): 180 nM
IC50 (A549 [1]): 180 nM

SMILES: CC/C(=C(\c1ccccc1)c1ccc(OCCN(C)C)cc1)c1ccccc1 [TAMOXIFEN]
IC50 (MCF7 [3]): 22500 nM

SMILES: O=C(Cc1ccc(C(=O)NO)cc1)Nc1ccc2ncnc(Nc3ccc(I)cc3)c2c1
IC50 (MCF7 [3]): 2200 nM
IC50 (HL-60): 2200 nM
IC50 (A549 [1]): 2200 nM
IC50 (MDA-MB-231): 2200 nM
IC50 (A-375): 2200 nM
IC50 [4]: 16300 nM
IC50 (SGC-7901): 2200 nM
IC50 (HCT-116 [10]): 2200 nM

SMILES: COc1cc2c(Oc3ccc(NC(=O)C4(C(=O)Nc5ccc(F)cc5)CC4)cc3F)ccnc2cc1OCCCN1CCOCC1 [FORETINIB]
IC50 (MCF7 [11]): 520 nM
IC50 (HCT-116 [12]): 520 nM
IC50 (A549 [13]): 520 nM

Second part, led by results:

IC50 (Histone deacetylase 1): 2.2 nM
IC50 (A549 [1]): 370 nM
IC50 (Jurkat): 370 nM
IC50 (HepG2): 370 nM
IC50 (MDA-MB-231): 370 nM
IC50 [2]: 0.6 nM
SMILES: Cc1cccc(Nc2nc(Nc3ccc(NC(=O)CCCCCCC(=O)NO)cc3)ncc2C)c1

IC50 (MCF7 [3]): 1960 nM
IC50 [4]: 26 nM
SMILES: COc1cc(OCCCCCCC(=O)NO)ccc1C1c2ccc(O)cc2CCN1CC(C)(C)F (stereo unspecified)

IC50 (Histone deacetylase): 5.8 nM
SMILES: CC(C)(C)OC(=O)Nc1cccc(-c2cc(C(=O)NCCCCCCC(=O)NO)no2)c1

IC50 (Histone deacetylase 8): 183 nM
SMILES: O=C(CCCCCN1C(=O)c2ccccc2/C=C\c2ccccc21)NO
IC50 (Daudi): 93 nM
IC50 (A549 [8]): 93 nM
IC50 (MCF7 [9]): 93 nM
IC50 (MV4-11): 93 nM

IC50 [7]: 1.3 nM
IC50 (Histone deacetylase 1): 4.8 nM
IC50 (A2780): 2310 nM
SMILES: COc1ncc(-c2ccc3ncc(C(=O)NCCCCCCC(=O)NO)cc3c2)cc1NS(=O)(=O)c1ccc(F)cc1F
